According to ChEMBL document CHEMBL1909046, “DrugMatrix in vitro pharmacology data”:
pIC50, pKi: −log10 of the molar value.

What was measured:
Progesterone receptor = target: T1, Progesterone receptor (Bos taurus, UniProt Q690N0); test: DRUGMATRIX: Progesterone radioligand binding (ligand: [3H] R-5020); assay type: tissue-based, Uterus; conditions: Not Active = under 50% inhibition at 10 µM; for pIC50: read-out: IC50; for pKi: read-out: Ki
T1 sequence (Q690N0 whole entry): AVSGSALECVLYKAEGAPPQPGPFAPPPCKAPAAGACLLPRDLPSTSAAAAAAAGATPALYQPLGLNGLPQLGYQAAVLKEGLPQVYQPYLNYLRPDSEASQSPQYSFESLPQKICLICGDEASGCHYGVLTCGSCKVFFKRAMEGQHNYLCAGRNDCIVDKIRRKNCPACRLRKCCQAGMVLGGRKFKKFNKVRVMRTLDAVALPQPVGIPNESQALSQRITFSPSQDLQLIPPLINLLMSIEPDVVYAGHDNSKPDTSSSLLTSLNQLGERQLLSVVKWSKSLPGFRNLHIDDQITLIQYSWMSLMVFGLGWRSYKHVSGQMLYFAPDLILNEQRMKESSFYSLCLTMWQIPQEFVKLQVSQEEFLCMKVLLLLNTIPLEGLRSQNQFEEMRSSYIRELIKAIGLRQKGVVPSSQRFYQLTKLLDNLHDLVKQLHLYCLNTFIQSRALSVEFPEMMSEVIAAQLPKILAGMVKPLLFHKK

Thromboxane-A synthase = target: T2, Thromboxane-A synthase (Homo sapiens, UniProt P24557); test: biochemical; assay type: tissue-based, Platelet; conditions: for pIC50: read-out: IC50; for IC50: platelet;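 as to all read-outs here: enzyme inhibition assay with PGH2 supplied as substrate; in other assays of this panel Not Active means under 50% inhibition at 10 µM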
T2 sequence (P24557 whole entry): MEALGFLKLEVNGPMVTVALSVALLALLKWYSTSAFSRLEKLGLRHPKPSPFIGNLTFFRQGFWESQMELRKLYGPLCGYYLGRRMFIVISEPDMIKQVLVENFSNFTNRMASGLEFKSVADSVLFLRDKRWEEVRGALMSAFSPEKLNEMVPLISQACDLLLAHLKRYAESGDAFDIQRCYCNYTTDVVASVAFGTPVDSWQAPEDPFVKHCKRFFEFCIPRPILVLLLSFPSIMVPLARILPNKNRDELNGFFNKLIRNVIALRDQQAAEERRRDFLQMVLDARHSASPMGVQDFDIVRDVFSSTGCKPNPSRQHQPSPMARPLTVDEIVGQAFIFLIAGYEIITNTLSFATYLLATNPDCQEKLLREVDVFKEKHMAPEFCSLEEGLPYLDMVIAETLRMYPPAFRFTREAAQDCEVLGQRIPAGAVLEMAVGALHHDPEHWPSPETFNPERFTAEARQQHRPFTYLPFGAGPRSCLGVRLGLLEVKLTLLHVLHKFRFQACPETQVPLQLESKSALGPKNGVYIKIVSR

Melanocortin receptor 3 = Melanocortin receptor 3 (Homo sapiens, UniProt P41968); assay type: cell membranes, Membrane; conditions: hek293; also: in other assays of this panel Not Active means under 50% inhibition at 10 µM
Chain of Melanocortin receptor 3 (P41968 whole entry): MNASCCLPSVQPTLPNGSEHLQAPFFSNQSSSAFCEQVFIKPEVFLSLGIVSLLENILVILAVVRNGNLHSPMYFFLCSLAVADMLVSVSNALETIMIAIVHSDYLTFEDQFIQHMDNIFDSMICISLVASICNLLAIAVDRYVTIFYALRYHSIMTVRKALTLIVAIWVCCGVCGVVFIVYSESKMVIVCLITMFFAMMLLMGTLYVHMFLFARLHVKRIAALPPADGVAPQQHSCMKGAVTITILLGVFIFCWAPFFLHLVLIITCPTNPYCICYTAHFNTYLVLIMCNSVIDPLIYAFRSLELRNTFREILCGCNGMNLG

Carbonic anhydrase 2 = Carbonic anhydrase 2 (Homo sapiens, UniProt P00918); test: DRUGMATRIX: Carbonic Anhydrase II enzyme inhibition (substrate: 4-Nitrophenyl acetate (4-NPA)); assay type: tissue-based, Erythrocyte; conditions: erythrocyte; Not Active = under 50% inhibition at 10 µM
[1] = target: T3, C-X-C chemokine receptor type 2 (Homo sapiens, UniProt P25025); assay type: cell membranes, Membrane; conditions: cho-k1; also: in other assays of this panel Not Active means under 50% inhibition at 10 µM
T3 sequence (P25025 whole entry): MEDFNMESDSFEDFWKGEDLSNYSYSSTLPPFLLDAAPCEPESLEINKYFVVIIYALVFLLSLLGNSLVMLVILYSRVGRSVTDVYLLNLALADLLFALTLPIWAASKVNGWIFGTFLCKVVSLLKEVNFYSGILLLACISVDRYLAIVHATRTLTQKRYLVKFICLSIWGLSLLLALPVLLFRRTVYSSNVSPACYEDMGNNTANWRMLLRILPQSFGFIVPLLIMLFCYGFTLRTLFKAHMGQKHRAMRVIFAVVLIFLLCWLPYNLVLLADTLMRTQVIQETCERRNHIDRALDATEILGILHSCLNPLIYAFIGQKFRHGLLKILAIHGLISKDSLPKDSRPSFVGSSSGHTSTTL

[2] = target: cGMP-specific 3',5'-cyclic phosphodiesterase (Homo sapiens, UniProt O76074); test: DRUGMATRIX: Phosphodiesterase PDE5 enzyme inhibition (substrate: [3H]cGMP + cGMP); assay type: tissue-based, Platelet; conditions: platelet; Not Active = under 50% inhibition at 10 µM
Cytochrome P450 1A2 = target: T4, Cytochrome P450 1A2 (Homo sapiens, UniProt P05177); conditions: bti-tn-5b1-4; also: in other assays of this panel Not Active means under 50% inhibition at 10 µM
T4 sequence (P05177 whole entry): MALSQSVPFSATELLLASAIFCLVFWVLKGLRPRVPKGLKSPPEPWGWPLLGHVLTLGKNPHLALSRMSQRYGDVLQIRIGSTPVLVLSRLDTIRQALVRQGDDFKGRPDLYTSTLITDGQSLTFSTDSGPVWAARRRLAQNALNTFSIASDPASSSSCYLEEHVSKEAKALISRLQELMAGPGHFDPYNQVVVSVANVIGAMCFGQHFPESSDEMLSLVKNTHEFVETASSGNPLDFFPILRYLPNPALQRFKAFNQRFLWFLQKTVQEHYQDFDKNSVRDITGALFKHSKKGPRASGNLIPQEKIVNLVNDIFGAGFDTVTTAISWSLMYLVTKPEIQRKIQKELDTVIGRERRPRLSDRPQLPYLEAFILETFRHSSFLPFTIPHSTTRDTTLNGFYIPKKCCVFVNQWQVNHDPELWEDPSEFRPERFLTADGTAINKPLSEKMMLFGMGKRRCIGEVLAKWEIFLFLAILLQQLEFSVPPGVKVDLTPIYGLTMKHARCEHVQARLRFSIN

SMILES	IC50 (Progesterone receptor)	pIC50 (Thromboxane-A synthase)	IC50 (Melanocortin receptor 3)	IC50 (Carbonic anhydrase 2)	IC50 [1]	IC50 [2]	IC50 (Cytochrome P450 1A2)	Ki (Cytochrome P450 1A2)	IC50 (Thromboxane-A synthase)	pIC50 (Progesterone receptor)	pKi (Progesterone receptor)
CCOc1nc2cccc(C(=O)O)c2n1Cc1ccc(-c2ccccc2-c2nnn[nH]2)cc1	Not Active	5.51	Not Active	Not Active	Not Active	Not Active	–	–	–	–	–
O=C(O)CCCc1cccs1	Not Active	–	Not Active	Not Active	Not Active	Not Active	Not Active	Not Active	Not Active	–	–
COc1ccccc1N	Not Active	–	Not Active	Not Active	Not Active	Not Active	Not Active	Not Active	Not Active	–	–
O=C(c1ccccc1F)N1CCC(Cc2ccccc2)CC1	Not Active	–	Not Active	Not Active	Not Active	Not Active	Not Active	Not Active	Not Active	–	–
Cc1c(O)cccc1C(=O)N[C@@H](CSc1ccccc1)[C@H](O)CN1C[C@H]2CCCC[C@H]2C[C@H]1C(=O)NC(C)(C)C	–	4.68	Not Active	Not Active	Not Active	Not Active	Not Active	Not Active	–	4.35	5.24
CC(O)COC[C@H]1O[C@@H]2O[C@H]3[C@H](O)[C@@H](O)[C@@H](O[C@H]4[C@H](O)[C@@H](O)[C@@H](O[C@H]5[C@H](O)[C@@H](O)[C@@H](O[C@H]6[C@H](O)[C@@H](O)[C@@H](O[C@H]7[C@H](O)[C@@H](O)[C@@H](O[C@H]8[C@H](O)[C@@H](O)[C@@H](O[C@H]1[C@H](O)[C@H]2O)O[C@@H]8COCC(C)O)O[C@@H]7COCC(C)O)O[C@@H]6COCC(C)O)O[C@@H]5COCC(C)O)O[C@@H]4COCC(C)O)O[C@@H]3COCC(C)O (stereo partly drawn) [2-HYDROXYPROPYL-BETA-CYCLODEXTRIN]	Not Active	–	Not Active	Not Active	Not Active	Not Active	Not Active	Not Active	Not Active	–	–
NC(=O)c1cccc(N)c1 [3-AMINOBENZAMIDE]	Not Active	–	Not Active	Not Active	Not Active	Not Active	Not Active	Not Active	Not Active	–	–
C[C@H]1O[C@H](O[C@H]2[C@H](O)[C@@H](O)[C@@H](O[C@H]3[C@H](O)[C@@H](O)C(O)O[C@@H]3CO)O[C@@H]2CO)[C@H](O)[C@@H](O)[C@@H]1N[C@H]1C=C(CO)[C@@H](O)[C@H](O)[C@H]1O (some centres not stated) [ACARBOSE]	Not Active	–	Not Active	Not Active	Not Active	Not Active	Not Active	Not Active	Not Active	–	–
CC[C@H]1[C@@H]2C[C@H]3[C@@H]4N(C)c5ccccc5[C@]45C[C@@H]([C@@H]2[C@H]5O)N3[C@@H]1O [AJMALINE]	Not Active	–	Not Active	Not Active	Not Active	Not Active	Not Active	Not Active	Not Active	–	–
NC12CC3CC(CC(C3)C1)C2 [AMANTADINE]	Not Active	–	Not Active	Not Active	Not Active	Not Active	–	–	Not Active	–	–
NCCCNCCSP(=O)(O)O [AMIFOSTINE]	–	–	Not Active	Not Active	Not Active	Not Active	Not Active	Not Active	Not Active	–	–
CC(C)c1c(C(=O)Nc2ccccc2)c(-c2ccccc2)c(-c2ccc(F)cc2)n1CC[C@@H](O)C[C@@H](O)CC(=O)O [ATORVASTATIN]	Not Active	–	Not Active	Not Active	Not Active	Not Active	–	–	Not Active	–	–
C#C[C@]1(O)CC[C@H]2[C@@H]3CCC4=CC(=O)CC[C@]4(C)[C@H]3CC[C@@]21C [ETHISTERONE]	–	–	Not Active	Not Active	Not Active	Not Active	–	–	Not Active	7.23	8.11
CC(O)(P(=O)(O)O)P(=O)(O)O [ETIDRONIC ACID]	–	–	Not Active	Not Active	Not Active	Not Active	Not Active	Not Active	Not Active	–	–
CC(C)(C(=O)O)c1ccc(C(O)CCCN2CCC(C(O)(c3ccccc3)c3ccccc3)CC2)cc1 (configuration not stated) [FEXOFENADINE]	Not Active	–	Not Active	Not Active	Not Active	Not Active	–	–	Not Active	–	–
CC(=O)OCC(=O)[C@@]12OC(C)(C)O[C@@H]1C[C@H]1[C@@H]3C[C@H](F)C4=CC(=O)C=C[C@]4(C)[C@@]3(F)[C@@H](O)C[C@@]12C [FLUOCINONIDE]	–	–	Not Active	Not Active	Not Active	Not Active	–	–	Not Active	7.66	8.54
N[C@@H](Cn1ccc(=O)c(O)c1)C(=O)O [L-MIMOSINE]	Not Active	–	Not Active	Not Active	Not Active	Not Active	–	–	Not Active	–	–
CN(C)C(=N)NC(=N)N [METFORMIN]	Not Active	–	Not Active	Not Active	Not Active	Not Active	–	–	Not Active	–	–
CC(C)(C)NCC(O)COc1cccc2c1CC(O)C(O)C2 (configuration not stated) [NADOLOL]	Not Active	–	Not Active	Not Active	Not Active	Not Active	–	–	Not Active	–	–
C[C@@H]1C/C=C/C=C/C=C/C=C/[C@H](O[C@@H]2O[C@H](C)[C@@H](O)[C@H](N)[C@@H]2O)C[C@@H]2O[C@](O)(C[C@@H](O)C[C@H]3O[C@@H]3/C=C/C(=O)O1)C[C@H](O)[C@H]2C(=O)O [NATAMYCIN]	Not Active	–	Not Active	Not Active	Not Active	Not Active	–	–	Not Active	–	–
C[C@@H]1O[C@@H](O[C@H]2C[C@@H](O)[C@]3(CO)[C@H]4[C@H](O)C[C@]5(C)[C@@H](C6=CC(=O)OC6)CC[C@]5(O)[C@@H]4CC[C@]3(O)C2)[C@H](O)[C@H](O)[C@H]1O [OUABAIN]	Not Active	–	Not Active	Not Active	Not Active	Not Active	–	–	Not Active	–	–
